For eleven compounds, IC50 results are on record in patent US9328099B2, “Cyanomethylpyrazole carboxamides as janus kinase inhibitors” (Merck Sharp & Dohme Corp., priority 2011, dated 2016).

pIC50: −log10 of the molar value. Read-outs that look alike come from different tables or passages of the source. Where only a bound is given, the exact number is not on record here.

In one experiment the target is JAK1 (Homo sapiens (Human), UniProt P23458). Kind of experiment: Jak Biochemical HTRF Assay, JAK1. The following applies: read-out: JAK1 IC50. The text has this:
(§1) Jak Biochemical HTRF Assay Protocol
(§2) Subsequent reagent additions employed an Agilent Bravo.

The next experiment has as its target JAK2 (Homo sapiens (Human), UniProt O60674). As to the kind of experiment: Jak Biochemical HTRF Assay, JAK2.
Description: as §1, §2

[1] abbreviates: HTRF biochemical assay, GST-tagged catalytic domain, top concentration tested […].

JAK2, sequence (O60674 849-1124): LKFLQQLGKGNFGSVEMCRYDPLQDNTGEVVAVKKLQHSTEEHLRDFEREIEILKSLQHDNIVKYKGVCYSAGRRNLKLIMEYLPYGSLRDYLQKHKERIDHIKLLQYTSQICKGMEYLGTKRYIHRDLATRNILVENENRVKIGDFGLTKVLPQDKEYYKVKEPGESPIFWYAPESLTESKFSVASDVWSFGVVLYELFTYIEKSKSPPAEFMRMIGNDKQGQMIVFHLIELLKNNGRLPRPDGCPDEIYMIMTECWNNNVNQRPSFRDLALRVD
JAK1, sequence (P23458 875-1153): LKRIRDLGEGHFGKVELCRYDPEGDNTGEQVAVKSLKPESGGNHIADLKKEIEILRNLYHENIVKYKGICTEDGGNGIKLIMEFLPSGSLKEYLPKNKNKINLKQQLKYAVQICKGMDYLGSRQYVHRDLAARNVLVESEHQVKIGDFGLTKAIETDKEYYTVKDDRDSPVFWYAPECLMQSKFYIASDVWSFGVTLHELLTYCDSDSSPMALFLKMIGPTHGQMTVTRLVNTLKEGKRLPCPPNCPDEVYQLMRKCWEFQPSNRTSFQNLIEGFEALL

As for `N#CCC1(n2cc(C(N)=O)c(Nc3ccnc(F)c3)n2)CCC(NCc2cccc(Cl)c2)CC1` (stereo not drawn) [Example 41-20, Cis or trans 1-{4-[(3-chlorobenzyl)amino]-1-(cyanomethyl)cyclohexyl}-3-[(2-fluoropyridin-4-yl)amino]-1H-pyrazole-4-carboxamide], the figures for the pIC50 on JAK1 (setting [1]) and against JAK2 (setting [1]) were 9.22 and 7.77, respectively.

On to `N#CCC1(n2cc(C(N)=O)c(Nc3ccnc(F)c3)n2)CCC(NCc2ccccc2F)CC1` (stereo not drawn) [Example 41-21, Cis or trans 1-{1-(cyanomethyl)-4-[(2-fluorobenzyl)amino]cyclohexyl}-3-[(2-fluoropyridin-4-yl)amino]-1H-pyrazole-4-carboxamide], for which the negative-log IC50 (pIC50) on JAK1 (setting [1]) was 7.96; at JAK2 (setting [1]), 6.51.

`N#CCC1(n2cc(C(N)=O)c(Nc3ccnc(F)c3)n2)CCC(NCc2cccnc2)CC1` (stereo not drawn) [Example 41-22, Cis or trans 1-{1-(cyanomethyl)-4-[(pyridin-3-ylmethyl)amino]cyclohexyl}-3-[(2-fluoropyridin-4-yl)amino]-1H-pyrazole-4-carboxamide]: the values for the pIC50 at JAK1 (setting [1]) and against JAK2 (setting [1]) were 7.55 and 5.98, respectively.

As for `N#CCC1(n2cc(C(N)=O)c(Nc3ccnc(F)c3)n2)CCC(NCc2cccc(Cl)c2)CC1` (stereo not drawn) [Example 41-23, Cis or trans 1-{4-[(3-chlorobenzyl)amino]-1-(cyanomethyl)cyclohexyl}-3-[(2-fluoropyridin-4-yl)amino]-1H-pyrazole-4-carboxamide], the pIC50 at JAK1 (setting [1]) was 7.34; on JAK2 (setting [1]), 5.84.

`N#CCC1(n2cc(C(N)=O)c(Nc3ccnc(F)c3)n2)CCC(NCc2cccc(F)c2)CC1` (stereo not drawn) [Example 41-24, Cis or trans 1-{1-(cyanomethyl)-4-[(3-fluorobenzyl)amino]cyclohexyl}-3-[(2-fluoropyridin-4-yl)amino]-1H-pyrazole-4-carboxamide]: the pIC50 at JAK1 (setting [1]) was 7.59; against JAK2 (setting [1]), 5.99.

As to `N#CCC1(n2cc(C(N)=O)c(Nc3ccnc(F)c3)n2)CCC(NCc2ccc(F)cc2)CC1` (stereo not drawn) [Example 41-25, Cis or trans 1-{1-(cyanomethyl)-4-[(4-fluorobenzyl)amino]cyclohexyl}-3-[(2-fluoropyridin-4-yl)amino]-1H-pyrazole-4-carboxamide], the values for the pIC50 on JAK1 (setting [1]) and at JAK2 (setting [1]) were 7.57 and 5.97, respectively.

As for `N#CCC1(n2cc(C(N)=O)c(Nc3ccnc(F)c3)n2)CCC(NCc2ccc(O)cc2)CC1` (stereo not drawn) [Example 41-26, Cis or trans 1-{1-(cyanomethyl)-4-[(4-hydroxybenzyl)amino]cyclohexyl}-3-[(2-fluoropyridin-4-yl)amino]-1H-pyrazole-4-carboxamide], the pIC50 is 7.80 on JAK1 (setting [1]) and 6.12 at JAK2 (setting [1]).

Regarding `N#CCC1(n2cc(C(N)=O)c(Nc3ccnc(F)c3)n2)CCC(NCc2ccccc2C#N)CC1` (stereo not drawn) [Example 41-27, Cis or trans 1-{4-[(2-cyanobenzyl)amino]-1-(cyanomethyl)cyclohexyl}-3-[(2-fluoropyridin-4-yl)amino]-1H-pyrazole-4-carboxamide], the pIC50 was 6.51 at JAK1 (setting [1]) and less than 5.83 against JAK2 (setting [1]).

`N#CCC1(n2cc(C(N)=O)c(Nc3ccnc(F)c3)n2)CCC(NCc2ccccc2)CC1` (stereo not drawn) [Example 41-28, Cis or trans 1-[4-(benzylamino)-1-(cyanomethyl)cyclohexyl]-3-[(2-fluoropyridin-4-yl)amino]-1H-pyrazole-4-carboxamide]: the pIC50 at JAK1 (setting [1]) is 7.70; against JAK2 (setting [1]), 6.13.

As for `N#CC[C@]1(n2cc(C(N)=O)c(Nc3ccccc3)n2)CC[C@H](C(=O)NCC(F)(F)F)CC1` [Example 45-2, cis or trans 1-{1-(cyanomethyl)-4-[(2,2,2-trifluoroethyl)carbamoyl]cyclohexyl}-3-(phenylamino)-1H-pyrazole-4-carboxamide], the results for the pIC50 on JAK1 and at JAK2 were 6.42 and 5.83, respectively.

As to `N#CC[C@@]1(n2cc(C(N)=O)c(Nc3ccnc(F)c3)n2)CCN(C(=O)OCC(F)F)C[C@@H]1F` [Example 46], the pIC50 on JAK1 (setting [1]) was 10.52; against JAK2 (setting [1]), 10.00.
